# Laboratory results reported in PMC12797170, “Potent Competitive Inhibitors of Ecto-5′-nucleotidase (CD73) based on 6‑(Het)aryl-7-deazapurine Ribonucleoside 5′‑O‑Bisphosphonates” (ACS Pharmacology & Translational Science, 2025).
# System: CD8+ T cells
# Experiment: CD8+ T cell activation assay (CD25, IFN-γ, granzyme B)
# Format: cell-based, human
# Conditions: granzyme B and IFN-γ, 60 h
# Procedure: 6 CD73 inhibition partially reverses the immunosuppressive effect of adenosine generated from AMP in CD8 ^ + T cells. CD8^+ T cells were activated using CD3/CD28 activation beads in the presence of 2.5 μM EHNA, with or without 1 mM AMP and CD73 inhibitors (500 nM or 50 nM). A. CD25 expression. The percentage of CD8^+ T cells expressing the activation marker CD25 was measured by flow cytometry 60 h after activation. Data represent technical triplicates. B. Cytokine secretion. Granzyme B and IFN-γ levels in the culture supernatant were quantified by ELISA 60 h after activation. The data represent technical duplicates from two independently treated wells.
# Peripheral blood was obtained from healthy donors at the Military University Hospital Prague, following informed consent. CD8+ T cells were enriched using the RosetteSep Human CD8+ T Cell Enrichment Cocktail ([…] Technologies) according to the manufacturer’s instructions and subsequently isolated by density gradient centrifugation using SepMate tubes ([…] Technologies). Residual red blood cells were lysed using a red blood cell lysis buffer (155 mM NH4Cl, 12 mM NaHCO3, 0.1 mM EDTA, pH = 7.1–7.4). The isolated CD8+ T cells were resuspended in complete RPMI and counted using an automated cell counter.
# CD8+ T cells were seeded at 5 × 10^4 cells/well in 50 μL of complete RPMI in a flat-bottom 96-well plate. […] This was followed by the addition of 10 μL of a CD73 inhibitor at either 5 μM or 500 nM (experimental wells) or 10 μL of complete RPMI (control wells). Subsequently, 20 μL of 5 mM AMP was added to all wells except those serving as controls for maximal T cell activation. […]
# Following incubation, supernatants were collected for quantification of IFN-γ and granzyme B using ELISA. […] Finally, stained cells were washed and analyzed using a BD LSRFortessa flow cytometer. Data were processed and analyzed using FlowJo software (version 10.8.1) and GraphPad Prism 10.
# Secretion of IFN-γ and granzyme B was quantified using Human IFN-γ DuoSet ELISA and Human Granzyme B DuoSet ELISA (R&D Systems) according to the manufacturer’s instructions. […]
row,SMILES,cytokine rescue efficacy
1,Cc1nc(-c2cccc3ccccc23)c2ccn([C@@H]3O[C@H](COP(=O)(O)CP(=O)(O)O)[C@@H](O)[C@H]3O)c2n1 [18E.6],weakest effects
2,Cc1nc(-c2ccc3ccccc3c2)c2ccn([C@@H]3O[C@H](COP(=O)(O)CP(=O)(O)O)[C@@H](O)[C@H]3O)c2n1 [18E.7],weakest effects
